Experimental data taken from patent publication US8148391B2 (Cephalon, Inc., priority 2006, dated 2012).
Where two headings read alike, the source gives them in different places.

Legend:
[1] = target: T1, c-Met (cytoplasmic domain) (Homo sapiens, UniProt P08581); assay: c-Met Kinase Assay (same methods as for ALK, with modifications); format: biochemical; details: c-Met kinase inhibition, 1 μM ATP
T1 construct: 10 ng/mL c-Met (cytoplasmic domain, Invitrogen Corporation #PV3143); purchased Invitrogen Corporation PV3143
Procedure, shortened: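 Steps: coat wells with PLC-γ (10 μg/mL, Tris-buffered saline); add 10 ng/mL c-Met cytoplasmic domain to initiate; incubate 15 min, 37° C; detect phosphoproduct via Eu-N1 PT66 antibody.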

[2] = target: T2, baculovirus-expressed ALK (Homo sapiens, UniProt Q9UM73); assay: ALK Kinase Assay (ELISA-type, time-resolved fluorescence); format: biochemical; details: ALK kinase inhibition, 1 μM ATP; read-out: ALK Activity
T2 construct: host or cells: baculovirus expression system
Procedure, shortened: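 Wells were coated with phospholipase C-γ at 10 μg/mL in Tris-buffered saline. Adding 30 ng/ml enzyme started the reaction, which ran at 37° C for 15 minutes before Eu-N1 PT66 antibody detection. Percent inhibition versus log10 concentration gave IC50 by variable-slope fit.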

T2 sequence (Q9UM73 19-1620): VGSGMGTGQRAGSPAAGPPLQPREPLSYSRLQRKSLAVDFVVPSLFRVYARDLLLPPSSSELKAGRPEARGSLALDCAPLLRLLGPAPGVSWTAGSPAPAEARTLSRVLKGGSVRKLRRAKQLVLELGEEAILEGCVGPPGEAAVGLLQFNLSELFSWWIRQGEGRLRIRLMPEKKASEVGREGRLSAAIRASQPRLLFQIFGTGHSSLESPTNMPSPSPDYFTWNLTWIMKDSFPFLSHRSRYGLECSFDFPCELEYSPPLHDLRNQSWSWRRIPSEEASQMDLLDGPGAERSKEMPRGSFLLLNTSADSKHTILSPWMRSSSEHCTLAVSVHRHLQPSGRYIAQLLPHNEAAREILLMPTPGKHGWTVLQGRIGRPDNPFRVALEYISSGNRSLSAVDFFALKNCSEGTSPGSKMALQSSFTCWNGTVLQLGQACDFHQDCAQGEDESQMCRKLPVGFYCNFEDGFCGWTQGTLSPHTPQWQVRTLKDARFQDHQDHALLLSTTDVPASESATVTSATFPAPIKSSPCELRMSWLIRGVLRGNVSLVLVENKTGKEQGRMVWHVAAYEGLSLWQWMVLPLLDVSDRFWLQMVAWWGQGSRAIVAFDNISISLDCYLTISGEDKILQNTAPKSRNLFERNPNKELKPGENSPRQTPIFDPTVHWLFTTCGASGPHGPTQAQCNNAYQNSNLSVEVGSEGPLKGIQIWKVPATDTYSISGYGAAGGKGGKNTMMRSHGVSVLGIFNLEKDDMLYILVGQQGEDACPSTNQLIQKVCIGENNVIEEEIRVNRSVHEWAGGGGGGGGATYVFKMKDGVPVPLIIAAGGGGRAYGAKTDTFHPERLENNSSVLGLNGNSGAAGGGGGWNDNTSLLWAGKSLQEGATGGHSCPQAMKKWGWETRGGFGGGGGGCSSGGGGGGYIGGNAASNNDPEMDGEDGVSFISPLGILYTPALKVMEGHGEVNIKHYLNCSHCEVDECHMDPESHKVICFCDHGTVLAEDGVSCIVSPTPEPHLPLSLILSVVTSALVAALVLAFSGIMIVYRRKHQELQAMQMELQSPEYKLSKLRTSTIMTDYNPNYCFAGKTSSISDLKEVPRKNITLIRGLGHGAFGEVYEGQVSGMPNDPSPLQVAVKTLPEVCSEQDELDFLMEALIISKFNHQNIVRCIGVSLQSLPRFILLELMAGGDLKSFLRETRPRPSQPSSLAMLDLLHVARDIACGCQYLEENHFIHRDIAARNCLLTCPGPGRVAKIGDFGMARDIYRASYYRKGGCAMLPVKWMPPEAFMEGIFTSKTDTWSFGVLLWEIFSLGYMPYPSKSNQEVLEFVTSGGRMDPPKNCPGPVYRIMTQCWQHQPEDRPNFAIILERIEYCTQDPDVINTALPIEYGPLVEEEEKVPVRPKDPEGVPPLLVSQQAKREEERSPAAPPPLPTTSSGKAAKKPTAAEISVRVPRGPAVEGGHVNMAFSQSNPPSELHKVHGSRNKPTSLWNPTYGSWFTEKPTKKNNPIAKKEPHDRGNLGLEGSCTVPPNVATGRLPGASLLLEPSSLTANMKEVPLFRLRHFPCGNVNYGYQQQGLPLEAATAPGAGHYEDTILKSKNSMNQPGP
T1 sequence (P08581 956-1390 limits assumed): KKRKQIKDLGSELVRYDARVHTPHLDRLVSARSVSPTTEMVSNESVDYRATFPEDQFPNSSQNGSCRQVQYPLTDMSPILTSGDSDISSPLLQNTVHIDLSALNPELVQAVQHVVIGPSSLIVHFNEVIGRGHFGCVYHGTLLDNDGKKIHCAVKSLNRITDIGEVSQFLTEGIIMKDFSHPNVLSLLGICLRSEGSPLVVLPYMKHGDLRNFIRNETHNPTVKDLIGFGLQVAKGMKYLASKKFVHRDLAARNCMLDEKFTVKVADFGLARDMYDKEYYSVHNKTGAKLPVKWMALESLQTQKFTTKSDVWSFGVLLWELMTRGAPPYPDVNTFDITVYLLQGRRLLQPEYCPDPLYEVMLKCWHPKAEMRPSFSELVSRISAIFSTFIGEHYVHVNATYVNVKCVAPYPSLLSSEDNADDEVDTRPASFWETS

| Compound | IC50 ([1]; read-out: cMet Activity) | IC50 [2] | IC50 ([1]; cMet Activity) |
| --- | --- | --- | --- |
| CCN1CCCOc2cc(Nc3ncc(Cl)c(N[C@@H]4CCCC[C@H]4NS(C)(=O)=O)n3)c(F)cc21 [Example 1687, N-{(1R,2R)-2-[5-Chloro-2-(9-ethyl-2-fluoro-6,7,8,9-tetrahydro-5-oxa-9-aza-benzocyclohepten-3-ylamino)-pyrimidin-4-ylamino]-cyclohexyl}-methanesulfonamide] | 1000 to 10000 nM | < 100 nM | – |
| CCN1CCCOc2cc(Nc3ncc(Cl)c(Nc4ccc(N5CCOCC5)cc4OC)n3)c(F)cc21 [Example 1688, 5-Chloro-N*2*-(9-ethyl-2-fluoro-6,7,8,9-tetrahydro-5-oxa-9-aza-benzocyclohepten-3-yl)-N*4*-(2-methoxy-4-morpholin-4-yl-phenyl)-pyrimidine-2,4-diamine] | > 10000 nM | 100 to 1000 nM | – |
| COCCN1CCc2ccc(Nc3ncc(Cl)c(Nc4ccc(N5CCOCC5)cc4OCCC#N)n3)cc2CC1 [Example 1689, 3-(2-{5-Chloro-2-[3-(2-methoxy-ethyl)-2,3,4,5-tetrahydro-1H-benzo[d]azepin-7-ylamino]-pyrimidin-4-ylamino}-5-morpholin-4-yl-phenoxy)-propionitrile] | 1000 to 10000 nM | < 100 nM | – |
| CC1(C)CCC(=O)Nc2cc(Nc3ncc(Cl)c(Nc4ccc(N5CCOCC5)cc4OCCC#N)n3)ccc21 [Example 1690, 3-{2-[5-Chloro-2-(5,5-dimethyl-2-oxo-2,3,4,5-tetrahydro-1H-benzo[b]azepin-8-ylamino)-pyrimidin-4-ylamino]-5-morpholin-4-yl-phenoxy}-propionitrile] | 1000 to 10000 nM | < 100 nM | – |
| CCN1CCCOc2cc(Nc3ncc(Cl)c(Nc4c(F)cccc4C(=O)NC)n3)c(F)cc21 [Example 1691, 2-[5-Chloro-2-(9-ethyl-2-fluoro-6,7,8,9-tetrahydro-5-oxa-9-aza-benzocyclohepten-3-ylamino)-pyrimidin-4-ylamino]-3-fluoro-N-methyl-benzamide] | < 100 nM | < 100 nM | – |
| CCN1CCCOc2cc(Nc3ncc(Cl)c(N[C@@H]4CCCC[C@H]4NS(C)(=O)=O)n3)ccc21 [Example 1693, N-{(1R,2R)-2-[5-Chloro-2-(9-ethyl-6,7,8,9-tetrahydro-5-oxa-9-aza-benzocyclohepten-3-ylamino)-pyrimidin-4-ylamino]-cyclohexyl}-methanesulfonamide] | 100 to 1000 nM | < 100 nM | – |
| CCN1CCCOc2cc(Nc3ncc(Cl)c(Nc4ccc(N5CCOCC5)cc4OC)n3)ccc21 [Example 1694, 5-Chloro-N*2*-(9-ethyl-6,7,8,9-tetrahydro-5-oxa-9-aza-benzocyclohepten-3-yl)-N*4*-(2-methoxy-4-morpholin-4-yl-phenyl)-pyrimidine-2,4-diamine] | 1000 to 10000 nM | < 100 nM | – |
| COCCOc1cccc(F)c1Nc1nc(Nc2ccc3c(c2)NC(=O)CCC3)ncc1Cl [Example 1695, 8-{5-Chloro-4-[2-fluoro-6-(2-methoxy-ethoxy)-phenylamino]-pyrimidin-2-ylamino}-1,3,4,5-tetrahydro-benzo[b]azepin-2-one] | 100 to 1000 nM | 100 to 1000 nM | – |
| COCCOc1cccc(F)c1Nc1nc(Nc2ccc3c(c2)CCN(CCOC)CC3)ncc1Cl [Example 1696, 5-Chloro-N*4*-[2-fluoro-6-(2-methoxy-ethoxy)-phenyl]-N*2*-[3-(2-methoxy-ethyl)-2,3,4,5-tetrahydro-1H-benzo[d]azepin-7-yl]-pyrimidine-2,4-diamine] | 100 to 1000 nM | < 100 nM | – |
| CCN1CCCOc2ccc(Nc3ncc(Cl)c(Nc4ccsc4C(=O)NC)n3)cc21 [Example 1698, 3-[5-Chloro-2-(9-ethyl-6,7,8,9-tetrahydro-5-oxa-9-aza-benzocyclohepten-2-ylamino)-pyrimidin-4-ylamino]-thiophene-2-carboxylic acid methyl amide] | 100 to 1000 nM | 100 to 1000 nM | – |
| CCN1C(=O)CCCc2c1ccc(Nc1ncc(Cl)c(N[C@@H]3[C@@H]4C[C@@H]([C@@H](O)[C@H]4O)[C@@H]3C(N)=O)n1)c2OC [Example 1699, (1R,2S,3R,4S,5S,6R)-3-[5-Chloro-2-(1-ethyl-6-methoxy-2-oxo-2,3,4,5-tetrahydro-1H-benzo[b]azepin-7-ylamino)-pyrimidin-4-ylamino]-5,6-dihydroxy-bicyclo[2.2.1]heptane-2-carboxylic acid amide] | > 10000 nM | 100 to 1000 nM | – |
| C=CCOc1cc(N2CCOCC2)cc(F)c1Nc1nc(Nc2ccc3c(c2)CCOC(=O)N3C)ncc1Cl [Example 1700, 2-[4-(2-Allyloxy-6-fluoro-4-morpholin-4-yl-phenylamino)-5-chloro-pyrimidin-2-ylamino]-5-methyl-8,9-dihydro-5H-7-oxa-5-aza-benzocyclohepten-6-one] | 1000 to 10000 nM | < 100 nM | – |
| CNC(=O)c1sccc1Nc1nc(Nc2ccc3c(c2)N(C(C)=O)CCCO3)ncc1Cl [Example 1702, 3-[2-(9-Acetyl-6,7,8,9-tetrahydro-5-oxa-9-aza-benzocyclohepten-2-ylamino)-5-chloro-pyrimidin-4-ylamino]-thiophene-2-carboxylic acid methylamide] | – | 1000 to 10000 nM | < 100 nM |
| CNC(=O)c1ccccc1Nc1nc(Nc2ccc3c(c2)N(C(C)=O)CCCO3)ncc1Cl [Example 1703, 2-[2-(9-Acetyl-6,7,8,9-tetrahydro-5-oxa-9-aza-benzocyclohepten-2-ylamino)-5-chloro-pyrimidin-4-ylamino]-N-methyl-benzamide] | < 100 nM | < 100 nM | – |
| CNC(=O)c1cccc(F)c1Nc1nc(Nc2ccc3c(c2)N(C(=O)CN2CCCC2)CCCO3)ncc1Cl [Example 1704, 2-{5-Chloro-2-[9-(2-pyrrolidin-1-yl-acetyl)-6,7,8,9-tetrahydro-5-oxa-9-aza-benzocyclohepten-2-ylamino]-pyrimidin-4-ylamino}-3-fluoro-N-methyl-benzamide] | 100 to 1000 nM | 1000 to 10000 nM | – |
| CNC(=O)c1sccc1Nc1nc(Nc2ccc3c(c2)N(C(=O)CN2CCCC2)CCCO3)ncc1Cl [Example 1705, 3-{5-Chloro-2-[9-(2-pyrrolidin-1-yl-acetyl)-6,7,8,9-tetrahydro-5-oxa-9-aza-benzocyclohepten-2-ylamino]-pyrimidin-4-ylamino}-thiophene-2-carboxylic acid methylamide] | 100 to 1000 nM | 100 to 1000 nM | – |
| CNC(=O)c1ccccc1Nc1nc(Nc2ccc3c(c2)N(C(=O)CN2CCCC2)CCCO3)ncc1Cl [Example 1706, 2-{5-Chloro-2-[9-(2-pyrrolidin-1-yl-acetyl)-6,7,8,9-tetrahydro-5-oxa-9-aza-benzocyclohepten-2-ylamino]-pyrimidin-4-ylamino}-N-methyl-benzamide] | 100 to 1000 nM | 100 to 1000 nM | – |
| CNC(=O)c1cccc(F)c1Nc1nc(Nc2ccc3c(c2)N(C)CCCO3)ncc1Cl [Example 1707, 2-[5-Chloro-2-(9-methyl-6,7,8,9-tetrahydro-5-oxa-9-aza-benzocyclohepten-2-ylamino)-pyrimidin-4-ylamino]-3-fluoro-N-methyl-benzamide] | < 100 nM | < 100 nM | – |
| CNC(=O)c1ccccc1Nc1nc(Nc2ccc3c(c2)N(C)CCCO3)ncc1Cl [Example 1708, 2-[5-Chloro-2-(9-methyl-6,7,8,9-tetrahydro-5-oxa-9-aza-benzocyclohepten-2-ylamino)-pyrimidin-4-ylamino]-N-methyl-benzamide] | < 100 nM | < 100 nM | – |
| C=CCOc1cc(N(C)C)cc(F)c1Nc1nc(Nc2ccc3c(c2)CCOC(=O)N3C)ncc1Cl [Example 1709, 2-[4-(2-Allyloxy-4-dimethylamino-6-fluoro-phenylamino)-5-chloro-pyrimidin-2-ylamino]-5-methyl-8,9-dihydro-5H-7-oxa-5-aza-benzocyclohepten-6-one] | 100 to 1000 nM | < 100 nM | – |
| C=CCOc1cc(N(C)C)cc(F)c1Nc1nc(Nc2ccc3c(c2)CCN(CCOC)CC3)ncc1Cl [Example 1710, N*4*-(2-Allyloxy-4-dimethylamino-6-fluoro-phenyl)-5-chloro-N*2*-[3-(2-methoxy-ethyl)-2,3,4,5-tetrahydro-1H-benzo[d]azepin-7-yl]-pyrimidine-2,4-diamine] | 100 to 1000 nM | < 100 nM | – |
| COCCN1CCc2ccc(Nc3ncc(Cl)c(Nc4c(F)cccc4C(=O)NCC4CC4)n3)cc2CC1 [Example 1711, 2-{5-Chloro-2-[3-(2-methoxy-ethyl)-2,3,4,5-tetrahydro-1H-benzo[d]azepin-7-ylamino]-pyrimidin-4-ylamino}-N-cyclopropylmethyl-3-fluoro-benzamide] | 1000 to 10000 nM | 100 to 1000 nM | – |
| O=C1CCCc2ccc(Nc3ncc(Cl)c(Nc4c(F)cccc4C(=O)NCC4CC4)n3)cc2N1 [Example 1712, 2-[5-Chloro-2-(2-oxo-2,3,4,5-tetrahydro-1H-benzo[b]azepin-8-ylamino)-pyrimidin-4-ylamino]-N-cyclopropylmethyl-3-fluoro-benzamide] | 1000 to 10000 nM | 1000 to 10000 nM | – |
| C#CCNC(=O)c1cccc(F)c1Nc1nc(Nc2ccc3c(c2)N(C(C)=O)CCCO3)ncc1Cl [Example 1713, 2-[2-(9-Acetyl-6,7,8,9-tetrahydro-5-oxa-9-aza-benzocyclohepten-2-ylamino)-5-chloro-pyrimidin-4-ylamino]-3-fluoro-N-prop-2-ynyl-benzamide] | < 100 nM | 100 to 1000 nM | – |
| CNC(=O)c1sccc1Nc1nc(Nc2ccc3c(c2)OCCCN3C(=O)CN2CCCC2)ncc1Cl [Example 1715, 3-{5-Chloro-2-[9-(2-pyrrolidin-1-yl-acetyl)-6,7,8,9-tetrahydro-5-oxa-9-aza-benzocyclohepten-3-ylamino]-pyrimidin-4-ylamino}-thiophene-2-carboxylic acid methylamide] | 100 to 1000 nM | 100 to 1000 nM | – |
